Assay results: the NIST ThermoML archive (doi:10.1016/j.jct.2017.02.022)

Tests used:
[1] = molar heat capacity at constant pressure; conditions: 101.33 kPa, Liquid, Small sample (50 mg) DSC
[2] = refractive index (Na D-line) (dimensionless); conditions: 101.3 kPa, Liquid, Standard Abbe refractometry
[3] = 101.3 kPa, Liquid; for speed of sound: Frequency=3 MHz, Sing-around technique in a fixed-path interferometer; for mass density: Vibrating tube method
[4] = xn = mol fraction of the nth substance listed; conditions: 101.3 kPa, Liquid, x2 = 0; for speed of sound: Frequency=3 MHz, Sing-around technique in a fixed-path interferometer; for mass density: Vibrating tube method
[5] = refractive index (Na D-line) (dimensionless); xn = mol fraction of the nth substance listed; conditions: 101.3 kPa, Liquid, Standard Abbe refractometry, x2 = 0

COS(=O)(=O)[O-].Cn1cc[n+](C)c1 [1,3-dimethylimidazolium methylsulfate]
Conditions | mass density, [3] [kg/m3] | molar heat capacity at constant pressure, [1] [J/K/mol] | refractive index, [2] | speed of sound, [3] [m/s]
298 K | 1329 | 298.1 | 1.483 | 1811
303 K | 1322 | 303.1 | 1.481 | 1799
308 K | 1319 | 308 | 1.48 | 1787
313 K | 1315 | 312.9 | 1.479 | 1775

CCn1cc[n+](C)c1.COS(=O)(=O)[O-] [1-ethyl-3-methylimidazolium methylsulfate]
Conditions | mass density, [3] [kg/m3] | molar heat capacity at constant pressure, [1] [J/K/mol] | refractive index, [2] | speed of sound, [3] [m/s]
298 K | 1292 | 313.3 | 1.48 | 1762
303 K | 1289 | 319.9 | 1.479 | 1750
308 K | 1285 | 326.6 | 1.478 | 1739
313 K | 1282 | 333.2 | 1.476 | 1727

CCCCO [butan-1-ol]
Conditions | mass density, [3] [kg/m3] | refractive index, [2] | speed of sound, [3] [m/s]
298 K | 806 | 1.397 | 1240
303 K | 802 | 1.395 | 1224
308 K | 798 | 1.392 | 1206
313 K | 794 | 1.389 | 1190

CCCCO [butan-1-ol] + CCn1cc[n+](C)c1.COS(=O)(=O)[O-]
Conditions | mass density, [4] [kg/m3] | refractive index, [5] | speed of sound, [4] [m/s]
298 K | 806 | 1.397 | 1240
303 K | 802 | 1.395 | 1224
308 K | 798 | 1.392 | 1206
313 K | 794 | 1.389 | 1190

CCCCO [butan-1-ol] + COS(=O)(=O)[O-].Cn1cc[n+](C)c1
Conditions | mass density, [4] [kg/m3] | refractive index, [5] | speed of sound, [4] [m/s]
298 K | 806 | 1.397 | 1240
303 K | 802 | 1.395 | 1224
308 K | 798 | 1.392 | 1206
313 K | 794 | 1.389 | 1190

CCCCCO [pentan-1-ol]
Conditions | mass density, [3] [kg/m3] | refractive index, [2] | speed of sound, [3] [m/s]
298 K | 811 | 1.408 | 1276
303 K | 807 | 1.407 | 1259
308 K | 803 | 1.406 | 1242
313 K | 800 | 1.404 | 1226

CCCCCO [pentan-1-ol] + CCn1cc[n+](C)c1.COS(=O)(=O)[O-]
Conditions | mass density, [4] [kg/m3] | refractive index, [5] | speed of sound, [4] [m/s]
298 K | 811 | 1.408 | 1276
303 K | 807 | 1.407 | 1259
308 K | 803 | 1.406 | 1242
313 K | 800 | 1.404 | 1226

CCCCCO [pentan-1-ol] + COS(=O)(=O)[O-].Cn1cc[n+](C)c1
Conditions | mass density, [4] [kg/m3] | refractive index, [5] | speed of sound, [4] [m/s]
298 K | 811 | 1.408 | 1276
303 K | 807 | 1.407 | 1259
308 K | 803 | 1.406 | 1242
313 K | 800 | 1.404 | 1226

CCCO [propan-1-ol]
Conditions | mass density, [3] [kg/m3] | refractive index, [2] | speed of sound, [3] [m/s]
298 K | 800 | 1.383 | 1208
303 K | 796 | 1.382 | 1191
308 K | 792 | 1.38 | 1174
313 K | 789 | 1.378 | 1158

CCCO [propan-1-ol] + CCn1cc[n+](C)c1.COS(=O)(=O)[O-]
Conditions | mass density, [4] [kg/m3] | refractive index, [5] | speed of sound, [4] [m/s]
298 K | 800 | 1.383 | 1208
303 K | 796 | 1.382 | 1191
308 K | 792 | 1.38 | 1174
313 K | 789 | 1.378 | 1158

CCCO [propan-1-ol] + COS(=O)(=O)[O-].Cn1cc[n+](C)c1
Conditions | mass density, [4] [kg/m3] | refractive index, [5] | speed of sound, [4] [m/s]
298 K | 800 | 1.383 | 1208
303 K | 796 | 1.382 | 1191
308 K | 792 | 1.38 | 1174
313 K | 789 | 1.378 | 1158
